This note sets out measurements from PMC7038073, “Substituted Piperazines as Novel Potential Radioprotective Agents” (Molecules, 2020).

“Also recorded” adds a separate entry of the source. Structures can show the parent of a compound that is named as a salt.

The nature of series [1]: WST-1 cytotoxicity test, SAOS-2. The format is cell-based. Particulars: human, SAOS-2 cells, 48 h, WST-1, mean ± SD of three experiments, read-out: relative viability (%) compared to untreated control; for viability at 48 h, 10 µM: SAOS-2, 10 µM; for viability at 48 h, 100 µM: SAOS-2, 100 µM. The procedure:
(§1) In this study, the cytotoxic effects of nine new compounds (2, 3, 4, 5, 6, 7, 8, 9, 10) were tested on 10 human cell lines (nine cancer and one non-cancer cell line). The cell lines were treated with each compound at concentrations of 10 µM and 100 µM for 48 h. The proliferation capacity of the treated cells was determined by WST-1 test and compared against the proliferation rate of the untreated control cells (100%).
(§2) The cell lines Jurkat, MOLT-4, A2780, A549, HT-29, PANC-1, HeLa, MCF-7, SAOS-2, and MRC-5 (all purchased from Sigma Aldrich, Czech Republic) were included in this study. All cell lines were maintained according to the provider’s guidelines, and plated and treated in 96-well plates (500 to 30 × 10^3 cells per well). The tested compounds 2, 3, 4, 5, 6, 7, 8, 9, and 10 were dissolved in 0.1% DMSO and kept in 10 mM stock solutions. Before use, the stock solution was diluted in culture media at ratios of 1:100 and 1:1000. The studied cell lines were treated with the compounds 2, 3, 4, 5, 6, 7, 8, 9, and 10 at concentrations of 10 and 100 µM for 48 h. Control cells were tested in culture media with and without DMSO (0.1%). The cells were also treated with 1 µM doxorubicin as a cytotoxicity control.
(§3) The WST-1 (2-(4-iodophenyl)-3-(4-nitrophenyl)-5-(2,4-disulfophenyl)-2H-tetrazolium, monosodium salt) test (Roche, Mannheim, Germany) was used according to the manufacturer’s protocol to determine cell viability in all 10 cell lines 48 h after treatment with the tested compounds. The cells were analyzed in a Tecan Infinite M200 spectrometer (Tecan Group, Männedorf, Switzerland) at 440 nm.

Series [2] in a line: WST-1 cytotoxicity test, Jurkat. The note with it: human, Jurkat cells, 48 h, WST-1, mean ± SD of three experiments, read-out: relative viability (%) compared to untreated control. The format is cell-based. Here is the method:
as §1, §2, §3
On the technique in general: Tetrazolium assays rely on reduction of a dye to a coloured formazan, in cell work by metabolically active cells.

Series [3] in a line: WST-1 cytotoxicity test, MRC-5. The note with it: human, MRC-5 cells, 48 h, WST-1, mean ± SD of three experiments, read-out: relative viability (%) compared to untreated control; for viability at 48 h, 10 µM: MRC-5, 10 µM; for viability at 48 h, 100 µM: MRC-5, 100 µM. In kind it is cell-based. The procedure: as §1, §2, §3
The nature of series [4]: WST-1 cytotoxicity test, MOLT-4. The format is cell-based. The note with it: human, MOLT-4 cells, 48 h, WST-1, mean ± SD of three experiments, read-out: relative viability (%) compared to untreated control; for viability at 48 h, 10 µM: MOLT-4, 10 µM; for viability at 48 h, 100 µM: MOLT-4, 100 µM. Here is the method:
as §1, §2, §3

The test system of the next series is A549 cells. The series can be described thus: MTT assay, IC50 and MTC. Particulars: for IC50 fold higher than that for compound 2 / MTC (maximum tolerated concentration): A549 cells, MTT; for MTC (maximum tolerated concentration): 24 h of treatment; for IC50: Homo sapiens, A549, 24 h, read-out: IC50 ± SEM.
For a further series, the system named is BALB/c mice. Nature of the series: Survival of whole-body irradiated mice. The format is in vivo. The note with it: female BALB/c mice; for day post-irradiation of onset of lethal effect / decline in survival: i.p. at 50% of MTD 5 min before 7.15 Gy, non-treated control 10 days; for survival at day 30 post-irradiation: n = 10, i.p. at 50% of MTD 5 min before 7.15 Gy, control 40%. The procedure:
To estimate the radioprotective effect on whole-body irradiated mice, compounds 4 (50 mg/kg), 5 (100 mg/kg), 6 (50 mg/kg), 7 (100 mg/kg), 8 (1000 mg/kg), and 10 (325 mg/kg) were injected (intraperitoneally, i.p.) 5 min before receiving 7.15 Gy of gamma radiation. These compounds were selected based on the cytotoxicity screening in vitro, and applied at a dose corresponding to 50% of the MTD in vivo. […] The follow-up period was 30 days.
Adult female BALB/c mice (21 ± 0.8 g) were used for all experiments (Velaz a.s., Prague, Czech Rep.). All the performed methods were in accordance with NIRS Guidelines for the Care and Use of Laboratory Animals and approved by the Committee for animal rights of the Ministry of Defence of the Czech Republic no. ČJ MO 255172/2019-684800. The mice, arranged in groups of 10 animals each, received a dose of 7.15 Gy from a ^60Co gamma source (Chisotron, Chirana, Czech Republic) at a dose rate of 1.04 Gy/min. Non-irradiated and non-treated control groups were included. Their survival and health status were checked on a daily basis for 30 days.
Compounds 4 (50 mg/kg), 5 (100 mg/kg), 6 (50 mg/kg), 7 (100 mg/kg), 8 (1000 mg/kg), and 10 (325 mg/kg) were selected and administered i.p. 5 min before irradiation. The doses were prepared from 100 mg/mL stock before each experiment.

The nature of another series: Solubility (in words). The format is physicochemical.

Protocol for A549 cells: In further experiments, MTT (3-(4,5-di-methylthiazol-2-yl)-2,5-diphenyltetrazolium bromide) assay was employed to evaluate the toxicological indexes of the newly synthesized compounds, including IC50 (half-maximal inhibitory concentration) and MTC (maximum tolerated concentration).
IC50 and MTC were determined through MTT assays. The MTT assay was performed according to [35]. In brief, the A549 cell line was plated in 96-well plates (100 µL, 9 × 10^3 cells per well) and incubated overnight. The tested compounds were prepared in phosphate buffer saline (PBS; Sigma–Aldrich) and serially diluted in DMEM (Dulbecco’s Modified Eagle Medium). An untreated control was included as a viability standard in each plate. After 24 h of treatment, the viability of A549 cells was measured at 570 nm. All experiments were performed in triplicate. The GraphPad Prism statistics software v5.04 (GraphPad Software Inc., San Diego, CA, USA) was used to calculate the IC50 values for parameter nonlinear regression. Values are expressed as mean ± SEM.

Consider `Cc1cc(OCC(O)CN2CCN(CCO)CC2)ccc1Cl.Cl.Cl` (stereo not shown) [Compound 4, 1-(4-chloro-3-methylphenoxy)-3-(4-(2-hydroxyethyl)piperazin-1-yl)propan-2-ol dihydrochloride], for which, in series [1], the viability at 48 h, 10 µM was 99 ± 6% and the viability at 48 h, 100 µM is 88 ± 4%. Moreover, in series [2], the viability at 48 h, 10 µM is 105 ± 5% and the viability at 48 h, 100 µM worked out at 89 ± 1%. Besides, in series [3], the viability at 48 h, 10 µM came out at 97 ± 8% and the viability at 48 h, 100 µM came to 93 ± 5%. Besides, in series [4], the viability at 48 h, 10 µM was determined as 88 ± 6% and the viability at 48 h, 100 µM turned out to be 92 ± 6%. Moreover, in the series with A549 cells, the “IC50 fold higher than that for compound 2” value (shortened to “IC50 fold higher than that”) came to 16.0 fold, the “MTC (maximum tolerated concentration)” value turned out to be 0.05 mM and the IC50 was 0.64 ± 0.03 mM. In the series on BALB/c mice, the “day post-irradiation of onset of lethal effect / decline in survival” value is > 12 days and the “survival at day 30 post-irradiation” value was 50%.
As to `Cl.Cl.Cl.OCCN1CCN(CCCNc2ccccc2)CC1` [Compound 5, 2-(4-(3-(phenylamino)propyl)piperazin-1-yl)ethanol trihydrochloride], in series [1], the viability at 48 h, 10 µM was 96 ± 4% and the viability at 48 h, 100 µM stood at 111 ± 6%. Further, in series [2], the viability at 48 h, 10 µM amounted to 98 ± 4% and the viability at 48 h, 100 µM was determined as 98 ± 3%. Besides, in series [3], the viability at 48 h, 10 µM was found to be 98 ± 7% and the viability at 48 h, 100 µM worked out at 102 ± 8%. In series [4], the viability at 48 h, 10 µM amounted to 93 ± 9% and the viability at 48 h, 100 µM was determined as 104 ± 7%. Further, in the series on A549 cells, the “IC50 fold higher than that” value was determined as 33.8 fold, the “MTC (maximum tolerated concentration)” value was determined as 0.05 mM and the concentration for half-maximal inhibition (IC50) came out at 1.35 ± 0.12 mM. Moreover, in the series on BALB/c mice, the “day post-irradiation of onset of lethal effect / decline in survival” value amounted to 10 days and the “survival at day 30 post-irradiation” value amounted to 30%.
Turning to `Cl.Cl.Cl.OCCN1CCN(CCCNc2cccc3ccccc23)CC1` [Compound 6, 2-(4-(3-(naphthalen-1-ylamino)propyl)piperazin-1-yl)ethanol trihydrochloride], in series [1], the viability at 48 h, 10 µM was determined as 94 ± 6% and the viability at 48 h, 100 µM was found to be 111 ± 4%. For the same molecule, in series [2], the viability at 48 h, 10 µM was 101 ± 1% and the viability at 48 h, 100 µM amounted to 93 ± 2%. Moreover, in series [3], the viability at 48 h, 10 µM was determined as 91 ± 4% and the viability at 48 h, 100 µM came out at 94 ± 2%. Besides, in series [4], the viability at 48 h, 10 µM amounted to 90 ± 7% and the viability at 48 h, 100 µM was found to be 112 ± 4%. Also, in the series with A549 cells, the “IC50 fold higher than that” value is 11.3 fold, the “MTC (maximum tolerated concentration)” value is given as 0.02 mM and the half-inhibitory concentration (IC50) was 0.45 ± 0.01 mM. In the series with BALB/c mice, the “day post-irradiation of onset of lethal effect / decline in survival” value was 10 days and the “survival at day 30 post-irradiation” value was 20%.
Consider `COc1ccc(NCCCN2CCN(CCO)CC2)cc1.Cl.Cl.Cl` [Compound 7, 2-(4-(3-((4-methoxyphenyl)amino)propyl)piperazin-1-yl)ethanol trihydrochloride], for which, in series [1], the viability at 48 h, 10 µM came out at 102 ± 7% and the viability at 48 h, 100 µM is 109 ± 2%. In series [2], the viability at 48 h, 10 µM stood at 100 ± 5% and the viability at 48 h, 100 µM turned out to be 96%. Also, in series [3], the viability at 48 h, 10 µM is 100 ± 3% and the viability at 48 h, 100 µM is 104 ± 3%. Also, in series [4], the viability at 48 h, 10 µM was 93 ± 3% and the viability at 48 h, 100 µM stood at 99 ± 3%. For the same molecule, in the series on A549 cells, the “IC50 fold higher than that” value was 63.8 fold, the “MTC (maximum tolerated concentration)” value is 0.39 mM and the IC50 amounted to 2.55 ± 0.21 mM. For the same molecule, in the series on BALB/c mice, the “day post-irradiation of onset of lethal effect / decline in survival” value stood at 9 days and the “survival at day 30 post-irradiation” value is 0%.
On to `OCCN1CCN(CC(O)CN2CCN(CCO)CC2)CC1` [Compound 8, 1.3-bis [4-(2-hydroxyethyl)piperazin-1-yl)propan-2-ol tetrahydrochloride], for which, in series [1], the viability at 48 h, 10 µM is 102 ± 6% and the viability at 48 h, 100 µM amounted to 87 ± 7%. Besides, in series [2], the viability at 48 h, 10 µM turned out to be 103 ± 5% and the viability at 48 h, 100 µM worked out at 96 ± 13%. For the same molecule, the “solubility (in words)” value in “Solubility (in words)” was “excellently soluble in media”. Further, in series [3], the viability at 48 h, 10 µM was found to be 95 ± 7% and the viability at 48 h, 100 µM was found to be 119 ± 16%. For the same molecule, in series [4], the viability at 48 h, 10 µM was 106 ± 8% and the viability at 48 h, 100 µM came to 81 ± 6%. Further, in the series on A549 cells, the “IC50 fold higher than that” value turned out to be 625 fold, the “MTC (maximum tolerated concentration)” value is 6.25 mM and the IC50 is > 25 mM. Moreover, in the series with BALB/c mice, the “day post-irradiation of onset of lethal effect / decline in survival” value is > 12 days and the “survival at day 30 post-irradiation” value amounted to 70%.
On to `Cl.Cl.OC(CNc1ccccc1)CNc1ccccc1` [Compound 9, 1,3-bis(phenylamino)propan-2-ol dihydrochloride], for which the viability at 48 h, 10 µM in series [1] came out at 106 ± 2%; in series [2] it was 104 ± 5%; in series [3], 102 ± 8%; in series [4], 103 ± 8%. The viability at 48 h, 100 µM in series [1] came out at 90 ± 4%; in series [2], 79 ± 11%; in series [3] it was 120 ± 16%; in series [4], 71 ± 4%. Also, the “solubility (in words)” value in the series “Solubility (in words)” is “low solubility; also recorded: insufficiently soluble for necessary concentrations”. Also, the “IC50 fold higher than that” value in the series with A549 cells was 6.0 fold. Also, the “MTC (maximum tolerated concentration)” value in the series with A549 cells is reported as 0.09 mM. The half-maximal inhibitory concentration (IC50) with A549 cells came to 0.24 ± 0.01 mM.
With `Cl.Cl.Cl.OCCN1CCN(CC(O)CNc2ccccc2)CC1` (stereo not shown) [Compound 10, 1-(phenylamino]-3-[4-(2-hydroxyethyl)piperazin-1-yl)propan-2-ol trihydrochloride], in series [1], the viability at 48 h, 10 µM is 97 ± 6% and the viability at 48 h, 100 µM turned out to be 102 ± 2%. Further, in series [2], the viability at 48 h, 10 µM is 108 ± 7% and the viability at 48 h, 100 µM worked out at 95 ± 4%. In addition, in series [3], the viability at 48 h, 10 µM was 102 ± 3% and the viability at 48 h, 100 µM came out at 102 ± 8%. In series [4], the viability at 48 h, 10 µM is 112 ± 6% and the viability at 48 h, 100 µM amounted to 100 ± 4%. In addition, in the series on A549 cells, the “IC50 fold higher than that” value is on record as 126.5 fold, the “MTC (maximum tolerated concentration)” value is 1.56 mM and the IC50 is 5.06 ± 0.23 mM. In addition, in the series with BALB/c mice, the “day post-irradiation of onset of lethal effect / decline in survival” value is given as > 12 days and the “survival at day 30 post-irradiation” value is 30%.

The viability is a read-out of living cells in per cent, often relative to untreated cells. The IC50 is the concentration that inhibits the measured activity by half.
